# Data published in US20250353847A1, “CRYSTALLINE FORMS OF AN AKRIC3 DEPENDENT KARS INHIBITOR” (Novartis AG, priority 2022, published 2025).
# What was measured:
# Format in all cases: physicochemical
# [1] = Solid state bulk stability, 1 week 80° C. tight container and 80° C./75% RH; settings: for Bulk (XRPD) solid form after stress / DP[%] degradation products, Bulk (HPLC): Solid state
# [2] = Stability 1% in excipient mixtures, 2 weeks 50° C.
# From the text: (§1) Both solid forms of the Compound of Formula (I) are also stable in mixtures with excipients.
# [3] = Xenon light stress (1200 kLuxh); parameters: key to CL color: A: No change of color; B: Slight discoloration; C: Medium discoloration; D: Strong discoloration; —: Test not performed; settings: for Bulk (XRPD) solid form after stress / DP[%] degradation products, Bulk (HPLC) / CL color: Xenon light (1200 kLuxh); for CL color: bulk
# From the text: as §1
# [4] = Slurry experiments of Form A and Hydrate HA in media with different water activities
# Description: Form A is stable at water activities of aw=0.7 and below, whereas the hydrate is stable at aw=0.9 and above. At 40° C. Form A is stable at water activities of aw=0.8 and below, whereas the hydrate is stable at aw>0.95.
# [5] = Humidity controlled XRPD
# [6] = Solid form transformation / decomposition upon heating
# Description: DSC thermograms were recorded with a TA Discovery DSC instrument using heat flux compensation (TA Instruments, USA). The TA Discovery instrument was calibrated for temperature and enthalpy according to the manufacturer's instructions using certified reference substances like indium. About 2 mg of sample material was sealed in a standard pin-holed aluminum pan and heated in the DSC from 0° C. to 300° C., at a heating rate of 10° C./min. Dry nitrogen gas, at a flow rate of 50 ml/min was used to purge the DSC equipment during the measurement.
# Thermogravimetric analysis was performed using a TA Discovery TGA instrument (TA Instruments, USA). About 2-10 mg of sample material was sealed in a standard aluminum pan with pierced lid and heated in the TGA from 30° C. to 250° C., at a heating rate of 10° C./min. Dry N2 gas, at a flow rate of 20 ml/min was used to purge the TGA equipment during the measurement.
# [7] = Competitive slurry experiments and equilibration studies in solvents; settings: for Outcome of competitive slurry experiment with Form A: 25° C.
# [8] = Stability in 0.1% solutions or suspensions, 1 week 80° C. (pH stability study); parameters: key to CL color: A: No change of color; B: Slight discoloration; C: Medium discoloration; D: Strong discoloration; —: Test not performed; key to Suspension or clear solution after stress test: ↓: Suspension; *: Clear solution after stress test; settings: for CL color / DP[%] degradation products (HPLC area-%): 0.1% solution or suspension; for CL color / DP[%] degradation products (HPLC area-%) / Suspension or clear solution after stress test: 1 week 80° C.; for Suspension or clear solution after stress test: 0.1%
# [9] = Hygroscopicity / water uptake
# Description: The maximum water uptake of Form A is 0.6% at 95% relative humidity at 25° C. Form A is stable at water activity of aw=0.7 at 25° C.
# Form A is an anhydrous crystalline form with a melting onset of about 208° C. and melting enthalpy of about 111-119 J/g.
# [10] = Stability in 0.1% solutions or suspensions, 1 week 80° C. (pH stability study); parameters: key to CL color: A: No change of color; B: Slight discoloration; C: Medium discoloration; D: Strong discoloration; —: Test not performed; key to Suspension or clear solution after stress test: ↓: Suspension; *: Clear solution after stress test; settings: for Suspension or clear solution after stress test: 0.1%
# Description: In a pH stability study, 0.1% suspension/solutions of the compound of Formula (I) in buffer solutions of various pHs were exposed to 80° C. for one week. The compound of Formula (I) degraded the most in pH 1 buffer, about 5%, whereas at high pH degradation was less than 1% after 1 week at 80° C.
# [11] = 80° C. and 80° C. and 75% RH for one week
# [12] = 1 week 80° C., tight container, listed as Modification A (NX-27)
# [13] = listed as Modification A (NX-27)
structure (smiles),measurement,setting,value
"O=C1CC2(CCN(C(=O)NCc3ccc(F)cc3)CC2)Nc2ccc(F)cc21 [amorphous, 6′-fluoro-N-(4-fluorobenzyl)-4′-oxo-3′,4′-dihydro-1′H-spiro[piperidine-4,2′-quinoline]-1-carboxamide]",Chemical stability in the bulk,[1]; [11],chemically stable
same,Solid form change of bulk under stress,[1]; [11],crystallized into the crystalline Modification A
same,Bulk (XRPD) solid form after stress,"[1]; 1 week 80° C., tight container",NX Mod A
same,"DP[%] degradation products, Bulk (HPLC)","[1]; 1 week 80° C., tight container",0.7%
same,Bulk (XRPD) solid form after stress,[1]; 1 week 80° C./75% RH,NX Mod A
same,"DP[%] degradation products, Bulk (HPLC)",[1]; 1 week 80° C./75% RH,0.7%
same,DP[%] degradation products,"[2]; 1% in mixture 1 (Dry Blend), 2 weeks 50° C., tight container",0.8%
same,DP[%] degradation products,"[2]; 1% in mixture 1 (Dry Blend), 2 weeks 50° C./75% RH",0.8%
same,DP[%] degradation products,"[2]; 1% in mixture 2 (Wet granulation), 2 weeks 50° C., tight container",0.8%
same,DP[%] degradation products,"[2]; 1% in mixture 2 (Wet granulation), 2 weeks 50° C./75% RH",0.8%
same,DP[%] degradation products,"[2]; 1% in mixture 3 (Roller compaction), 2 weeks 50° C., tight container",0.8%
same,DP[%] degradation products,"[2]; 1% in mixture 3 (Roller compaction), 2 weeks 50° C./75% RH",0.8%
same,Bulk (XRPD) solid form after stress,[3],No change
same,"DP[%] degradation products, Bulk (HPLC)",[3],0.7%
same,CL color,[3],A
same,Increase in degradation products upon light stress,[3]; listed as amorphous form,no degradation was observed
"O=C1CC2(CCN(C(=O)NCc3ccc(F)cc3)CC2)Nc2ccc(F)cc21 [Hydrate HA, 6′-fluoro-N-(4-fluorobenzyl)-4′-oxo-3′,4′-dihydro-1′H-spiro[piperidine-4,2′-quinoline]-1-carboxamide]",Water activity (aw) at which the form is stable,[4]; 25° C.,≥ 0.9
same,Water activity (aw) at which the form is stable,[4]; 40° C.,> 0.95
same,Form change after exposure to low humidity,[5]; about 12 hours at 5% RH,XRPD pattern changed to Form E
same,Stability of form in humidity controlled XRPD,[5]; relative humidity decreased from 40% RH to 5% RH at 25° C.,remains stable
same,Temperature of transformation into Form E,[6]; heating,about 70 °C
"O=C1CC2(CCN(C(=O)NCc3ccc(F)cc3)CC2)Nc2ccc(F)cc21 [Form C, 6′-fluoro-N-(4-fluorobenzyl)-4′-oxo-3′,4′-dihydro-1′H-spiro[piperidine-4,2′-quinoline]-1-carboxamide]",Outcome of competitive slurry experiment with Form A,[7],conversion of Form C into Form A
same,Transition temperature Form C / Form A (enantiotropic relationship),[7]; based on competitive slurry experiments,below 25 °C
same,Temperature of transformation into Form A upon heating,[6]; heating,about 150 °C
"O=C1CC2(CCN(C(=O)NCc3ccc(F)cc3)CC2)Nc2ccc(F)cc21 [compound of Formula (I), 6′-fluoro-N-(4-fluorobenzyl)-4′-oxo-3′,4′-dihydro-1′H-spiro[piperidine-4,2′-quinoline]-1-carboxamide]",Degradation,"[8]; 0.1% suspension/solution at high pH, 1 week at 80° C.",less than 1%
same,Degradation,"[8]; 0.1% suspension/solution in pH 1 buffer, 80° C., one week",about 5%
"O=C1CC2(CCN(C(=O)NCc3ccc(F)cc3)CC2)Nc2ccc(F)cc21 [Form A, 6′-fluoro-N-(4-fluorobenzyl)-4′-oxo-3′,4′-dihydro-1′H-spiro[piperidine-4,2′-quinoline]-1-carboxamide]",Chemical stability in the bulk,[1]; [11],chemically stable
same,Bulk (XRPD) solid form after stress,[1]; [12],No change
same,"DP[%] degradation products, Bulk (HPLC)",[1]; [12],0.6%
same,"DP[%] degradation products, Bulk (HPLC)",[1]; 1 week 80° C./75% RH,0.7%
same,Bulk (XRPD) solid form after stress,"[1]; 1 week 80° C./75% RH, listed as Modification A (NX-27)",No change
same,Physical stability in bulk,[1]; bulk,physically stable
same,Crystal structure after slurrying (equilibration) for prolonged time,[7]; various solvents,preserves its crystal structure
same,DP[%] degradation products,"[2]; 1% in mixture 1 (Dry Blend), 2 weeks 50° C., tight container, listed as Modification A (NX-27)",0.4%
same,DP[%] degradation products,"[2]; 1% in mixture 1 (Dry Blend), 2 weeks 50° C./75% RH, listed as Modification A (NX-27)",0.4%
same,DP[%] degradation products,"[2]; 1% in mixture 2 (Wet granulation), 2 weeks 50° C., tight container, listed as Modification A (NX-27)",0.4%
same,DP[%] degradation products,"[2]; 1% in mixture 2 (Wet granulation), 2 weeks 50° C./75% RH, listed as Modification A (NX-27)",0.4%
same,DP[%] degradation products,"[2]; 1% in mixture 3 (Roller compaction), 2 weeks 50° C., tight container, listed as Modification A (NX-27)",0.4%
same,DP[%] degradation products,"[2]; 1% in mixture 3 (Roller compaction), 2 weeks 50° C./75% RH, listed as Modification A (NX-27)",0.4%
same,Bulk (XRPD) solid form after stress,[3],No change
same,CL color,[3]; [13],B
same,"DP[%] degradation products, Bulk (HPLC)",[3]; [13],1.2%
same,Increase in degradation products upon light stress,[3]; listed as Modification A,0.6%
same,CL color,[8]; Acetonitrile,A
same,DP[%] degradation products (HPLC area-%),[8]; Acetonitrile,1.2%
same,CL color,[8]; Dioxane,A
same,DP[%] degradation products (HPLC area-%),[8]; Dioxane,56.8%
same,CL color,[8]; Ethanol,A
same,DP[%] degradation products (HPLC area-%),[8]; Ethanol,16.6%
same,CL color,[8]; MEK,A
same,DP[%] degradation products (HPLC area-%),[8]; MEK,7.6%
same,CL color,[8]; NMP,A
same,CL color,[8]; Water,A
same,DP[%] degradation products (HPLC area-%),[8]; Water,1.2%
same,CL color,"[8]; pH 1.0, 0.1N HCl",A
same,DP[%] degradation products (HPLC area-%),"[8]; pH 1.0, 0.1N HCl",5.6%
same,CL color,"[8]; pH 3.0, citrate buffer",A
same,DP[%] degradation products (HPLC area-%),"[8]; pH 3.0, citrate buffer",1.5%
same,DP[%] degradation products (HPLC area-%),"[8]; pH 4.7, acetate buffer",1.4%
same,CL color,"[8]; pH 6.8, phosphate buffer",A
same,DP[%] degradation products (HPLC area-%),"[8]; pH 6.8, phosphate buffer",1.2%
same,CL color,"[8]; pH 9.0, borate buffer",A
same,DP[%] degradation products (HPLC area-%),"[8]; pH 9.0, borate buffer",1.1%
same,Suspension or clear solution after stress test,[8]; Acetonitrile,*
same,Suspension or clear solution after stress test,[8]; Dioxane,*
same,Suspension or clear solution after stress test,[8]; Ethanol,*
same,Suspension or clear solution after stress test,[8]; MEK,*
same,Suspension or clear solution after stress test,[8]; NMP,*
same,Suspension or clear solution after stress test,"[8]; pH 4.7, acetate buffer",↓
same,Hygroscopicity,[9],slightly hygroscopic
same,Maximum water uptake,[9]; 95% relative humidity at 25° C.,0.6%
same,Water activity (aw) at which the form is stable,[4]; 40° C.,≤ 0.8
same,DP[%] degradation products (HPLC area-%),"[10]; 0.1% solution or suspension, NMP",14.3%
same,CL color,"[10]; 0.1% solution or suspension, pH 4.7, acetate buffer",A
same,Suspension or clear solution after stress test,[10]; Water,↓
same,Suspension or clear solution after stress test,"[10]; pH 1.0, 0.1N HCl",↓
same,Suspension or clear solution after stress test,"[10]; pH 3.0, citrate buffer",↓
same,Suspension or clear solution after stress test,"[10]; pH 6.8, phosphate buffer",↓
same,Suspension or clear solution after stress test,"[10]; pH 9.0, borate buffer",↓
same,Thermal decomposition temperature,[6]; TGA,240 °C
"O=C1CC2(CCN(C(=O)NCc3ccc(F)cc3)CC2)Nc2ccc(F)cc21 [Form D, 6′-fluoro-N-(4-fluorobenzyl)-4′-oxo-3′,4′-dihydro-1′H-spiro[piperidine-4,2′-quinoline]-1-carboxamide]",Outcome of competitive slurry experiment with Form A,[7],will convert into Form A
same,Temperature of transformation into Form A upon heating,[6]; heating,above 190 °C
